# Laboratory results published in patent publication US10640495B2, “Heterocycle derivatives having TrkA inhibitory activity” (Shionogi & Co., Ltd., priority 2015, dated 2020).
# Molecular target: human TrkA (Homo sapiens (Human), UniProt P04629)
# Test: Human TrkA inhibition assay (Test Example 2)
# Type: biochemical
# Conditions: Table 152, human TrkA inhibition; read-out: IC50_nM
# In short: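 Recombinant TrkA (1 nmol/L) was preincubated 15 min at room temperature with compound in HEPES/MgCl2/DTT buffer, then reacted with FL-peptide 27 (1.5 μmol/L) and ATP (500 μmol/L) for 120 min at 37 °C. After EDTA stop, substrate phosphorylation was read by microfluidic mobility shift. IC50 came from logistic regression over 3-fold dilution series.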
# Chain of human TrkA (P04629 440-796): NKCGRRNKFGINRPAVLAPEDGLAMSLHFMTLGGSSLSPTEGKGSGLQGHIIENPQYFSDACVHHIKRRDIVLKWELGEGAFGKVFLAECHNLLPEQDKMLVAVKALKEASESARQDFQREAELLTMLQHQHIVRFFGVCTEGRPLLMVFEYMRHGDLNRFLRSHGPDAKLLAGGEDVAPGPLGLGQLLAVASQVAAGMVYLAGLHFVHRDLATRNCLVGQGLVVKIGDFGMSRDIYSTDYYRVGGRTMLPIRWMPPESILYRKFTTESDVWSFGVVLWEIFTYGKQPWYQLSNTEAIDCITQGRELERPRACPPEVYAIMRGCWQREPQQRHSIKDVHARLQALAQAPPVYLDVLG
row,IC50 [nM],Compound
1,< 100,COCCC1C[C@@H](NC(=O)Nc2c(C)c(-c3ccc(C(=O)O)cc3)nn2-c2ccccc2)[C@H](c2ccccc2)O1 (stereo partly drawn) [Compound I-15]

# Same assay, conditions: Table 153, human TrkA inhibition; read-out: IC50
row,IC50 [nM],Compound
1,< 100,COCCN1C[C@@H](NC(=O)Nc2c(C)c(-c3cnc(C(=O)NC4CCOCC4)c(C)c3)nn2-c2ccccc2)[C@H](c2ccnc(F)c2)O1 (racemic) [Compound I-171]
2,> 1000,COCCN1C[C@H](NC(=O)Nc2c(C)c(OCC(C)(C)O)nn2-c2ccccc2)[C@@H](c2cnc(F)c(F)c2)O1 [Compound I-83]
3,< 100,COCCN1C[C@@H](NC(=O)Nc2c(C)c(-c3cnc4c(c3)oc(=O)n4C)nn2-c2ccccc2)[C@H](c2cnc(F)c(F)c2)O1 (racemic) [Compound I-123]
4,< 100,COCCN1C[C@@H](NC(=O)Nc2c(C)c(OCC(C)(C)O)nn2-c2ccccc2)[C@H](c2ccc(F)c(F)c2)O1 (racemic) [Compound I-61]
5,< 100,COCCN1C[C@@H](NC(=O)Nc2c(C)c(-c3cnc(C(=O)NCC(F)(F)F)c(C)c3)nn2-c2ccccc2)[C@H](c2ccnc(F)c2)O1 (racemic) [Compound I-168]
6,< 100,CCN1CCC(NC(=O)c2cc(-c3nn(-c4ccccc4)c(NC(=O)N[C@@H]4CN(CCOC)O[C@H]4c4ccc(F)c(F)c4)c3C)ccn2)CC1 (racemic) [Compound I-62]
7,< 100,CCOc1ncc(-c2nn(-c3ccccc3)c(NC(=O)N[C@@H]3CN(CCOC)O[C@H]3c3cnc(F)c(F)c3)c2C)cn1 (racemic) [Compound I-68]

# Same assay, conditions: Table 154, human TrkA inhibition; read-out: IC50
row,IC50 [nM],Compound
1,< 100,Cc1c(-c2cnc3c(cnn3C)c2)nn(-c2ccccc2)c1NC(=O)N[C@@H]1CN(CC(F)(F)F)O[C@H]1c1ccc(F)c(F)c1 (racemic) [Compound I-305]
2,< 100,COCCN1C[C@@H](NC(=O)Nc2c(C)c(-c3cnc4c(c3)c(=O)on4C)nn2-c2ccccc2)[C@H](c2ccnc(F)c2)O1 (racemic) [Compound I-269]
3,< 100,COCCN1C[C@@H](NC(=O)Nc2c(C)c(-c3cnc4c(ccc(=O)n4C)c3)nn2-c2ccccc2)[C@H](c2ccnc(F)c2)O1 (racemic) [Compound I-246]
4,< 100,COCCN1C[C@@H](NC(=O)Nc2c(C)c(-c3ccc(C(=O)NOC)nc3)nn2-c2ccccc2)[C@H](c2ccc(F)c(F)c2)O1 (racemic) [Compound I-234]
5,< 100,COCCN1C[C@@H](NC(=O)Nc2c(C)c(-c3cnc4c(c3)[nH]c(=O)n4C)nn2-c2ccccc2)[C@H](c2ccc(F)c(F)c2)O1 [Compound I-218]
6,< 100,COCCN1C[C@@H](NC(=O)Nc2c(C)c(-c3cnc(C)s3)nn2-c2ccccc2)[C@H](c2ccnc(F)c2)O1 (racemic) [Compound I-287]
7,< 100,COCCN1C[C@@H](NC(=O)Nc2c(C)c(-c3cnc(C(N)=O)c(F)c3)nn2-c2ccccc2)[C@H](c2cnc(F)c(F)c2)O1 (racemic) [Compound I-311]

# Same assay, conditions: Table 155, human TrkA inhibition; read-out: IC50
row,Compound,IC50 [nM]
1,COCCN1C[C@@H](NC(=O)Nc2c(C)c(-c3cnc4c(c3)CN(C)C4=O)nn2-c2ccccc2)[C@H](c2ccnc(F)c2)O1 (racemic) [Compound I-343],< 100
2,COCCN1C[C@@H](NC(=O)Nc2c(C)c(-c3ccc(N4CCNCC4)nc3)nn2-c2ccccc2)[C@H](c2ccnc(F)c2)O1 (racemic) [Compound I-374],< 100
3,COCCN1C[C@@H](NC(=O)Nc2c(C)c(-c3ccc4c(c3)NC(=O)CO4)nn2-c2ccccc2)[C@H](c2ccnc(F)c2)O1 (racemic) [Compound I-364],< 100

# Other lines, results leading:
row,IC50 [nM],Compound
1,< 100,COCCN1C[C@@H](NC(=O)Nc2c(C)c(OCc3ccncc3)nn2-c2ccccc2)[C@H](c2ccnc(F)c2)O1 (racemic) [Compound I-456]
2,< 100,COCCN1C[C@@H](NC(=O)Nc2c(C)c(-c3cnc(N4CCC5(CC4)COC5)nc3)nn2-c2ccccc2)[C@H](c2ccnc(F)c2)O1 (racemic) [Compound I-484]
3,< 100,COCCN1C[C@@H](NC(=O)Nc2c(C)c(-c3ccncc3)nn2-c2ccccc2)[C@H](c2ccc(F)c(F)c2)O1 [Compound I-466]
4,< 100,COCCN1C[C@@H](NC(=O)Nc2c(C)c(-c3cnc(N4CCN(CC#N)CC4)nc3)nn2-c2ccccc2)[C@H](c2cc(F)nc(F)c2)O1 (racemic) [Compound I-419]
5,< 100,CNC(=O)c1ncc(-c2nn(-c3ccccc3)c(NC(=O)N[C@@H]3CN(CCOC)O[C@H]3c3ccnc(F)c3)c2C)cc1CF (racemic) [Compound I-437]
6,< 100,COCCN1C[C@@H](NC(=O)Nc2c(C)c(OCC3COC3)nn2-c2ccccc2)[C@H](c2ccnc(F)c2)O1 (racemic) [Compound I-503]
7,< 100,COCCN1C[C@@H](NC(=O)Nc2c(C)c(-c3cnc4c(c3)nc(N3CCN(C)CC3)n4C)nn2-c2ccccc2)[C@H](c2ccnc(F)c2)O1 (racemic) [Compound I-399]
8,< 100,CNC(=O)c1ccc(-c2nn(-c3ccccc3)c(NC(=O)N[C@@H]3CN(CCOC)O[C@H]3c3cnc(F)c(F)c3)c2C)cn1 (racemic) [Compound I-453]
9,< 100,CNC(=O)Cn1cnc2cc(-c3nn(-c4ccccc4)c(NC(=O)N[C@@H]4CN(CCOC)O[C@H]4c4ccnc(F)c4)c3C)cnc21 (racemic) [Compound I-401]
10,< 100,COCCN1C[C@@H](NC(=O)Nc2c(C)c(-c3cnc(-c4cnoc4)nc3)nn2-c2ccccc2)[C@H](c2ccnc(F)c2)O1 (racemic) [Compound I-476]

# Same assay, conditions: Table 156, human TrkA inhibition; read-out: IC50
row,IC50 [nM],Compound
1,< 100,CCN1C[C@@H](NC(=O)Nc2c(C)c(OCC3CCN(C(C)=O)CC3)nn2-c2ccccc2)[C@H](c2ccc(F)cc2)O1 (racemic) [Compound I-566]
2,< 100,COCCN1C[C@@H](NC(=O)Nc2c(C)c(-c3cnc4occc4c3)nn2-c2ccccc2)[C@H](c2ccnc(F)c2)O1 (racemic) [Compound I-517]

# Same assay, conditions: Table 157, human TrkA inhibition; read-out: IC50
row,IC50 [nM],Compound
1,< 100,COCCN1C[C@@H](NC(=O)Nc2c(C)c(OCC(=O)NC3CC3)nn2-c2ccccc2)[C@H](c2ccnc(F)c2)O1 (racemic) [Compound I-635]
2,< 100,COCCN1C[C@@H](NC(=O)Nc2c(C)c(OCC(N)=O)nn2-c2ccccc2)[C@H](c2ccnc(F)c2)O1 (racemic) [Compound I-633]
3,< 100,COCCN1C[C@@H](NC(=O)Nc2c(C)c(-c3cnc(N4CCN(C)C[C@H]4C)nc3)nn2-c2ccccc2)[C@H](c2ccnc(F)c2)O1 [Compound I-594]

# Same assay, conditions: human TrkA 1 nmol/L, ATP 500 μmol/L, 120 min at 37° C.; read-out: IC50 values (TrkA phosphorylation inhibition)
row,IC50 [nM],Compound
1,0.78,COCCN1C[C@@H](NC(=O)Nc2c(C)c(C3=CCN(C(C)=O)CC3)nn2-c2ccccc2)[C@H](c2ccc(F)c(F)c2)O1 (racemic) [Compound I-31]
2,4.8,CNC(=O)c1ncc(-c2nn(-c3ccccc3)c(NC(=O)N[C@@H]3CN(CCOC)O[C@H]3c3ccnc(F)c3)c2C)cc1C (racemic) [Compound I-166]
3,17,COCCN1C[C@@H](NC(=O)Nc2c(C)c(N3Cc4cnn(C)c4C3)nn2-c2ccccc2)[C@H](c2ccnc(F)c2)O1 (racemic) [Compound I-244]
4,1.5,COCCN1C[C@@H](NC(=O)Nc2c(C)c(-c3ccnc(C(=O)NOC)c3)nn2-c2ccccc2)[C@H](c2cnc(F)c(F)c2)O1 [Compound I-233]
5,1.4,COCC[C@@H]1C[C@@H](NC(=O)Nc2c(C)c(-c3cnc4c(cnn4C)c3)nn2-c2ccccc2)[C@H](c2ccnc(F)c2)O1 [Compound I-236]
6,0.76,CNC(=O)c1ncc(-c2nn(-c3ccccc3)c(NC(=O)N[C@@H]3CN(CCOC)O[C@H]3c3ccc(F)c(F)c3)c2C)cc1NC [Compound I-315]
